# Laboratory results taken from patent US20090082337A1, “Compositions Comprising Quinolone and Methods for Treating or Controlling Infections” (priority 2007, published 2009).
# Assays:
# [1] = system: Bacteroides vulgatus (GAI 0673); experiment: In vitro anti-bacterial activity (MIC90), anaerobic bacteria; format: cell-based; settings: Phocaeicola vulgatus, anaerobic reference bacteria
# [2] = system: Staphylococcus aureus (No. 421); experiment: In vitro anti-bacterial activity (MIC90), methicillin-resistant Staphylococcus aureus isolates; format: cell-based; settings: methicillin-resistant Staphylococcus aureus (No. 421)
# Description: (§1) In yet another aspect, said another quinolone has a MIC90 value for a Gram-negative bacterium that is lower than that of the fluoroquinolone having Formula I, II, III, IV, V, VI, VII, or VIII for the same bacterium, said fluoroquinolone being included in the composition. MIC90 is the minimum concentration of the active compound required to inhibit ninety percent of the growth of a specified pathogen, in μg/ml.
# (§2) Anti-bacterial activity of the compound having Formula IV was tested against some methicillin-resistant Staphylococcus aureus bacteria strains and compared to the anti-bacterial activity of three commercially available antibiotics (nadifloxacin, ofloxacin, and sparfloxacin).
# [3] = system: Staphylococcus aureus (ATCC 33591); experiment: as above; format: cell-based; settings: ATCC33591; methicillin-resistant Staphylococcus aureus (ATCC 33591)
# Description: as §1, §2
# [4] = system: Staphylococcus aureus (No. 395); experiment: as above; format: cell-based; settings: methicillin-resistant Staphylococcus aureus (No. 395)
# Description: as §1, §2
# [5] = system: Staphylococcus aureus (ATCC 33593); experiment: as above; format: cell-based; settings: ATCC33593; methicillin-resistant Staphylococcus aureus (ATCC 33593)
# Description: as §1, §2
# [6] = system: Staphylococcus aureus (ATCC 33592); experiment: as above; format: cell-based; settings: ATCC33592; methicillin-resistant Staphylococcus aureus (ATCC 33592)
# Description: as §1, §2
# [7] = system: Staphylococcus aureus (No. 419); experiment: as above; format: cell-based; settings: methicillin-resistant Staphylococcus aureus (No. 419)
# Description: as §1, §2
# [8] = system: Staphylococcus aureus (No. 420); experiment: as above; format: cell-based; settings: methicillin-resistant Staphylococcus aureus (No. 420)
# Description: as §1, §2
# [9] = system: Staphylococcus aureus (No. 415); experiment: as above; format: cell-based; settings: methicillin-resistant Staphylococcus aureus (No. 415)
# Description: as §1, §2
# [10] = system: Propionibacterium acnes (ATCC 11828); experiment: In vitro anti-bacterial activity (MIC90), anaerobic bacteria; format: cell-based; settings: Cutibacterium acnes, ATCC11828, anaerobic reference bacteria
# [11] = system: Gentamycin-resistant Staphylococcus aureus; experiment: In vitro anti-bacterial activity (MIC90), ophthalmologic clinical bacteria isolates; format: cell-based; settings: antibiotic-resistant organisms
# [12] = system: Gentamycin-resistant Pseudomonas aeruginosa; experiment: as above; format: cell-based; settings: antibiotic-resistant organisms
# Pseudomonas aeruginosa = experiment: as above; format: cell-based; settings: Gram-negative
# [13] = system: Ofloxacin-resistant Staphylococcus aureus; experiment: as above; format: cell-based; settings: antibiotic-resistant organisms
# [14] = system: Penicillin-resistant Streptococcus pneumoniae; experiment: as above; format: cell-based; settings: antibiotic-resistant organisms
# Haemophilus influenzae = experiment: as above; format: cell-based; settings: Gram-negative
# Moraxella species = experiment: as above; format: cell-based; settings: Gram-negative
# [15] = system: Coagulase-negative Staphylococcus; experiment: as above; format: cell-based; settings: Gram-positive
# Staphylococcus aureus = experiment: as above; format: cell-based; settings: Gram-positive
# Propionibacterium acnes = experiment: as above; format: cell-based; settings: Cutibacterium acnes, Gram-positive
# Corynebacterium species = experiment: as above; format: cell-based; settings: Gram-positive
# Text: As disclosed above, most of these bacteria strains are also relevant to infections of the ear and upper respiratory tract.
# Streptococcus pneumoniae = experiment: as above; format: cell-based; settings: Gram-positive
# [16] = Stability of the compound having Formula IV in solution; format: physicochemical; settings: for remaining amount of the compound in solution: initial concentration 100 μg/ml
# Text: The stability of the compound having Formula IV in solution is shown in Table 7, as the remaining amount (expressed as the percentage of the initial amount) of the compound after selected times. The compound is stable in the pH range of most interest for the present invention.
# S. aureus (ATCC 29213) = experiment: MICs of compound having Formula IV and ciprofloxacin alone and in combination; format: cell-based; settings: Staphylococcus aureus, ATCC29213, alone, read-out: MIC, drug alone
# Description: (§3) Compositions having various combinations of concentrations of compound having Formula IV and cirprofloxacin were tested systematically against S. aureus, P. aeruginosa, and E. coli.
# E. coli (ATCC 25922) = experiment: as above; format: cell-based; settings: Escherichia coli, ATCC25922, alone, read-out: MIC, drug alone
# Description: as §3
# [17] = system: P. aeruginosa (ATCC 27853); experiment: as above; format: cell-based; settings: Pseudomonas aeruginosa, ATCC27853, alone, read-out: MIC, drug alone
# Description: as §3
smiles,measurement,setting,value
"C[C@@H]1CN(c2c(F)c(N)c3c(=O)c(C(=O)O)cn(C4CC4)c3c2F)C[C@H](C)N1 [Sparfloxacin, sparfloxacin]",MIC90,[1],0.78 µg/mL
same,MIC90,[2],0.39 µg/mL
same,MIC90,[3],0.024 µg/mL
same,MIC90,[4],0.05 µg/mL
same,MIC90,[5],0.024 µg/mL
same,MIC90,[6],0.1 µg/mL
same,MIC90,[7],1.56 µg/mL
same,MIC90,[8],0.78 µg/mL
same,MIC90,[9],0.2 µg/mL
same,MIC90,[10],0.78 µg/mL
"CC1CCc2c(N3CCC(O)CC3)c(F)cc3c(=O)c(C(=O)O)cn1c23 (centres unmarked) [Nadifloxacin, nadifloxacin]",MIC90,[1],0.78 µg/mL
same,MIC90,[2],0.78 µg/mL
same,MIC90,[3],0.006 µg/mL
same,MIC90,[4],0.024 µg/mL
same,MIC90,[5],0.024 µg/mL
same,MIC90,[6],0.05 µg/mL
same,MIC90,[7],0.39 µg/mL
same,MIC90,[8],0.78 µg/mL
same,MIC90,[9],0.1 µg/mL
same,MIC90,[10],0.78 µg/mL
"CC1COc2c(N3CCN(C)CC3)c(F)cc3c(=O)c(C(=O)O)cn1c23 (centres unmarked) [Ofloxacin, ofloxacin]",MIC90,[11],128 µg/mL
same,MIC90,[1],3.13 µg/mL
same,MIC90,[12],64 µg/mL
same,MIC90,Pseudomonas aeruginosa,4 µg/mL
same,MIC90,[13],> 128 µg/mL
same,MIC90,[14],2 µg/mL
same,MIC90,[2],1.56 µg/mL
same,MIC90,[3],0.05 µg/mL
same,MIC90,[4],0.2 µg/mL
same,MIC90,[5],0.2 µg/mL
same,MIC90,[6],0.39 µg/mL
same,MIC90,[7],3.13 µg/mL
same,MIC90,[8],1.56 µg/mL
same,MIC90,[9],0.78 µg/mL
same,MIC90,Haemophilus influenzae,≤ 0.06 µg/mL
same,MIC90,Moraxella species,0.13 µg/mL
same,MIC90,[15],8 µg/mL
same,MIC90,Staphylococcus aureus,32 µg/mL
same,MIC90,[10],1.56 µg/mL
same,MIC90,Propionibacterium acnes,1 µg/mL
same,MIC90,Corynebacterium species,32 µg/mL
same,MIC90,Streptococcus pneumoniae,2 µg/mL
N[C@@H]1CCCCN(c2c(F)cc3c(=O)c(C(=O)O)cn(C4CC4)c3c2Cl)C1 [Compound Having Formula IV],MIC90,[11],4 µg/mL
same,remaining amount of the compound in solution,"[16]; pH 3.5, 0 week",100 percentage of the initial amount
same,remaining amount of the compound in solution,"[16]; pH 3.5, 2 weeks",99.0 percentage of the initial amount
same,remaining amount of the compound in solution,"[16]; pH 3.5, 4 weeks",98.8 percentage of the initial amount
same,remaining amount of the compound in solution,"[16]; pH 4.0, 0 week",100 percentage of the initial amount
same,remaining amount of the compound in solution,"[16]; pH 4.0, 2 weeks",98.5 percentage of the initial amount
same,remaining amount of the compound in solution,"[16]; pH 4.0, 4 weeks",98.4 percentage of the initial amount
same,remaining amount of the compound in solution,"[16]; pH 4.5, 0 week",100 percentage of the initial amount
same,remaining amount of the compound in solution,"[16]; pH 4.5, 2 weeks",98.4 percentage of the initial amount
same,remaining amount of the compound in solution,"[16]; pH 4.5, 4 weeks",98.4 percentage of the initial amount
same,remaining amount of the compound in solution,"[16]; pH 5.0, 0 week",100 percentage of the initial amount
same,remaining amount of the compound in solution,"[16]; pH 5.0, 2 weeks",98.2 percentage of the initial amount
same,remaining amount of the compound in solution,"[16]; pH 5.0, 4 weeks",98.8 percentage of the initial amount
same,remaining amount of the compound in solution,"[16]; pH 5.5, 0 week",100 percentage of the initial amount
same,remaining amount of the compound in solution,"[16]; pH 5.5, 2 weeks",96.8 percentage of the initial amount
same,remaining amount of the compound in solution,"[16]; pH 5.5, 4 weeks",96.8 percentage of the initial amount
same,remaining amount of the compound in solution,"[16]; pH 6.0, 0 week",100 percentage of the initial amount
same,remaining amount of the compound in solution,"[16]; pH 6.0, 2 weeks",96.3 percentage of the initial amount
same,remaining amount of the compound in solution,"[16]; pH 6.0, 4 weeks",98.0 percentage of the initial amount
same,remaining amount of the compound in solution,"[16]; pH 6.5, 0 week",100 percentage of the initial amount
same,remaining amount of the compound in solution,"[16]; pH 6.5, 2 weeks",95.3 percentage of the initial amount
same,remaining amount of the compound in solution,"[16]; pH 6.5, 4 weeks",95.6 percentage of the initial amount
same,stability in solution (in words),[16]; pH range of most interest for the present invention,stable
same,MIC90,[1],0.1 µg/mL
same,MIC90,[12],32 µg/mL
same,MIC90,Pseudomonas aeruginosa,4 µg/mL
same,MIC90,[13],8 µg/mL
same,MIC90,[14],0.13 µg/mL
same,MIC90,[2],0.2 µg/mL
same,MIC90,[3],0.012 µg/mL
same,MIC90,[4],0.006 µg/mL
same,MIC90,[5],0.012 µg/mL
same,MIC90,[6],0.05 µg/mL
same,MIC90,[7],0.1 µg/mL
same,MIC90,[8],0.1 µg/mL
same,MIC90,[9],0.05 µg/mL
same,MIC,S. aureus (ATCC 29213),0.03 µg/mL
same,MIC,E. coli (ATCC 25922),0.12 µg/mL
same,MIC,[17],4 µg/mL
same,MIC90,Haemophilus influenzae,≤ 0.06 µg/mL
same,MIC90,Moraxella species,0.13 µg/mL
same,MIC90,[15],0.5 µg/mL
same,MIC90,Staphylococcus aureus,1 µg/mL
same,MIC90,[10],0.39 µg/mL
same,MIC90,Propionibacterium acnes,0.25 µg/mL
same,MIC90,Corynebacterium species,2 µg/mL
same,MIC90,Streptococcus pneumoniae,0.13 µg/mL
